Reference: ChEMBL document CHEMBL5252580, “Ionization and lipophilicity in nonpolar media mimicking the cell membrane interior” (Bioorg Med Chem, 2023)

Tests used:
Format in all cases: physicochemical
[1] = Ionization constant, pKa of the compound in water by potentiometric titration method
[2] = Lipophilicity, log D of the compound in octanol/water system at pH 7 by potentiometric titration method
[3] = Lipophilicity, log D of the compound in octanol/water system at pH 7 by shake-flask assay based HPLC analysis
[4] = Lipophilicity, log P of the compound in toluene/water system by potentiometric titration method; conditions: buffer
[5] = Lipophilicity, log D of the compound in toluene/water system at pH 7 by potentiometric titration method; conditions: buffer
[6] = Lipophilicity, log D of the compound in toluene/water system at pH 7 by shake-flask assay based HPLC analysis; conditions: buffer
[7] = Lipophilicity, log P of the compound in octanol/water system by potentiometric titration method
[8] = Acidic ionization constant, pKa of the compound in water by potentiometric titration method
[9] = Ionization constant, pKa of the compound in water in presence of 20 to 27.4% acetonitrile cosolvent by potentiometric titration method; conditions: water with 20 to 27.4% acetonitrile cosolvent
[10] = Ionization constant, pKa of the compound in water in presence of 30 to 35% acetonitrile cosolvent by potentiometric titration method; conditions: water with 30 to 35% acetonitrile cosolvent
[11] = Ionization constant, pKa of the compound in water in presence of 40 to 42.6% acetonitrile cosolvent by potentiometric titration method; conditions: water with 40 to 42.6% acetonitrile cosolvent
[12] = Basic ionization constant, pKa of the compound in 100% acetonitrile by UV-vis spectrophotometric titration method
[13] = Lipophilicity, log D of the compound assessed as retention index in nonpolar system in presence of 80% acetonitrile cosolvent by PLRP-S based RP-HPLC analysis
[14] = Ionization constant, pKa of the compound in water in presence of 80% acetonitrile cosolvent by PLRP-S based RP-HPLC analysis; conditions: water with 80% acetonitrile cosolvent
[15] = Basic ionization constant, pKa of the compound in water by potentiometric titration method
[16] = 100% acetonitrile, read-out: pKa

In the case of `NS(=O)(=O)c1cc2c(cc1Cl)NCNS2(=O)=O` [HYDROCHLOROTHIAZIDE], the pKa [1] is reported as 8.68.
In the case of `CC(C)Cc1ccc(C(C)C(=O)O)cc1` (centres undefined) [IBUPROFEN], the logD [2] is reported as 1.3, the logD [3] is reported as 1.07 and the logP [4] is reported as 3.1. The logD [5] was 0.2 and the logD [6] was -0.43.
In the case of `CCCCC(=O)N(Cc1ccc(-c2ccccc2-c2nnn[nH]2)cc1)[C@H](C(=O)O)C(C)C`, the logP ([7]; read-out: logP) is reported as 3.2, the logD [2] is reported as less than 0 and the logD [3] is reported as -1.32. It also gave a logP [4] of 0.3, a logD [5] of less than 0 and a logD [6] of less than -2.5.
Work on `CCn1cc(C(=O)O)c(=O)c2ccc(C)nc21` [NALIDIXIC ACID] yielded a pKa [8] of 6.25, a pKa [9] of 6.63 and a pKa [10] of 7.1. It also gave a pKa [11] of 7.56, a pKa [12, 16] of 6.17 and a logD [3] of 0.35. It also gave a logD [6] of -0.12 and a Retention_index [13] of -0.15.
Work on `Cc1cccc(C)c1NC(=O)C1CCCCN1C` (centres undefined) [MEPIVACAINE] yielded a pKa [1] of 7.83, a pKa [9] of 7.88 and a pKa [10] of 7.78. For the same molecule, the pKa [11] was 7.74, the pKa [12] was 16.62 and the pKa [14] was 5.9. For the same molecule, the logP [7] was 3.3, the logD [2] was 1.1 and the logD [3] was 0.92. It also gave a logP [4] of 1.4, a logD [5] of 0.8 and a logD [6] of 0.89. For the same molecule, the Retention_index [13] was 0.22.
Molecule `Nc1cccc(O)c1` [3-AMINOPHENOL] has a pKa [8] of 9.82, a pKa [15] of 4.36 and a pKa [9] of 4.13. The pKa [10] was 4.07, the pKa [11] was 4.01 and the pKa [12, 16] was 10.4. It also gave a logP ([7]; read-out: logP) of 0.1, a logD [2] of 0.1 and a logD [3] of -0.11. For the same molecule, the logD [6] was -1.77 and the Retention_index [13] was -0.65.
